Literature values in article PMC4264749, “Phlebotomy Treatment for Elimination of Perfluoroalkyl Acids in a Highly Exposed Family: A Retrospective Case-Series” (PLoS ONE, 2014).

Conditions: cited from earlier work

Substance: cholestyramine
- facilitating removal / elimination of PFAAs: successful
- PFOA levels in users compared to non-users (individuals using it for other medical reasons, West Virginia drinking water contamination): significantly lower
